Experimental data taken from US6054437A, “Method for inducing death of neoplastic cells using piperazine derivatives” (Hitachi Chemical Research Center, Inc., priority 1997, dated 2000).
Structures can show the parent of a compound that is named as a salt.

Columns and labels:
[1] = tested on: melanoma cell lines B16F10 and SK-Mel-2; test: Cancer cell death assay (LDH release), melanoma lines; format: cell-based, mouse (B16F10); human (SK-Mel-2); conditions: compound alone, 24 hours
Method: FIG. 2 is a graph showing the relationship between LDH released and the concentration of NCO-700 in cancer cell death assays of melanoma cell lines B16F10 (mouse line) and SK-Mel-2 (human line).
(§1) 1. Cancer Cell Death Assay
(§2) Cell death was measured quantitatively by the release of a marker intracellular enzyme, lactate dehydrogenase (LDH), from damaged or killed cells. LDH released into the extracellular fluid, was measured 24 hours after drug exposure to cancer cells and the enzyme activity was determined by the method of Decker et al. (J. Immunolog Methods 15:61-99, 1988).
(§3) All cell lines used in the present study were obtained from the American Type Tissue Culture Laboratory and cultured according to their specifications. All were human cancer lines unless otherwise noted. The following cell lines and their tissue of origin used in our studies were:
(§4) The first assays performed measured the anti-neoplastic activity of NCO-700, alone, in cell death assays of a wide variety of human cancer cells. The results of these experiments are shown in FIGS. 1-6, where a dose-response curve of NCO-700 versus % LDH release is plotted, with higher values of LDH released indicating greater anti-neoplastic activity (apoptosis).

[2] = Acute toxicity test, i.v. (LD50); conditions: rat, in vivo, iv, rats
From the text: This non-toxicity of the compounds makes it possible to administer the compounds to patients daily for a long period of time without interruption, without significant side effects, until the cancer tumors are suppressed. The non-toxicity, the apoptotic effects and the reversal of multidrug resistance of the compounds will change the procedures of conventional chemotherapy completely.

[3] = tested on: human colon cancer cells; test: Subrenal capsule (SRC) tumor implant assay, colon cancer; format: in vivo, human tumor in BDF/1 mice
Method: FIG. 19 is a graph showing the relationship between the change in size of tumor and the dosage of NCO-700 in a sub-renal capsule assay of human colon cancer in BDF/1 mice.
(§5) A tumor implant model, where human tumors were implanted into the renal capsule of mice was performed. The tumors successfully escaped the immune system of the mouse and grew over a six-day period. The advantage of this assay is that the effect of chemotherapeutic agents can be tested in vivo. This model was developed at the University of California, Irvine by Stratton et al. (Gynecologic Oncology 17:185-188, 1984). Human tumors were implanted on day one and were exposed to drug on days two-six. The size of the implant was determined at time zero and at the end of five days of drug treatment, and the difference in size of the implanted tumor at day six, when compared to control animals not exposed to drug, is referred to herein as the delta mean.
The effect of NCO-700 on a colon cancer line was tested in the SRC assay. Three groups of animals (n=18 total) were tested with two concentrations of NCO-700 including. 50 mg/kg and 100 mg/kg. […] These studies confirm the high potential of NCO-700 and related compounds as new anti-neoplastic agents.

[4] = tested on: HS-578T (breast); test: Cancer cell death assay (LDH release), HS-578T; format: cell-based, human; conditions: HS-578T, 25 μM, 1,000 and 1,500 cells/well (FIGS. 34, 35)
Method: as §1, §2
A series of analogs related to NCO-700 were assayed in the cancer cell death assay. […] It should be stressed that these analogs were tested alone, without any added chemotherapeutic agent.
Based on Experiment 1 above, the anti-cancer activity of NCO-700, TOP-008, and analogs, TOP-201, 202, 203, 204, 205, 206, 207, and 007, was tested in cancer cell death assays of human cancer cell line HS-578T. In FIGS. 34 (1,000 cells/well) and 35 (1,500 cells/well), a bar graph indicates the activity of a particular analog as measured by the % LDH released (DMSO, dimethyl sulfoxide=control), with higher values of LDH released indicating greater anti-neoplastic activity. All analogs were tested at a concentration of 25 μM.

[5] = tested on: ovarian tumor cells; test: Human tumor biopsy assay, ovarian tumor; format: cell-based; conditions: 20 μM NCO-700 and 0.4 mg/ml vinblastine, 1 hour
Method: 4. Human Tumor Biopsy Assays
where the effect of NCO-700 to enhance killing, by either vinblastine or adriamycin, of cancer cells cultured directly from patient's tumors (Von Hoff et al., Cancer Res. 43:1926-1931, 1983).
For the tumor biopsy assay, primary cell cultures were propagated directly from tumor specimens removed from patients. The cells were grown in suspension culture, treated with adriamycin or vinblastine plus NCO-700, and plated onto soft agar and incubated for two weeks before cell survival was determined.
In a final series of experiments, the effect of NCO-700 on survival of cells cultured directly from biopsied patient tumors was performed. This technique, referred to as a human tumor cloning system, was developed by Von Hoff and associates (Von Hoff et al., Cancer Res. 43:1926-1931, 1983) and was used clinically to predict the course of chemotherapy for these patients. In this method, tumor biopsies were separated into cell suspensions and treated for 1 hour with either 0.4 mg/ml vinblastine (VLB) or 0.5 mg/ml adriamycin (ADR) plus or minus 20 μM NCO-700. The cell suspensions were washed after one hour of incubation and plated with soft agar. After 14 days of incubation at 37°, the percent of colonies surviving was scored. […] In particular, the survival of tumor cells decreased to approximately 1/2 to 1/3 after exposure to NCO-700 and adriamycin. […]

[6] = tested on: PC-3 (prostate tumor cell line); test: Apoptosis induced DNA fragmentation (agarose gel); format: cell-based, human; conditions: PC-3, 50 μM, 48 hours
Method: PC-3, a prostate tumor cell line, was treated with 25 μM TOP-008, 50 μM NCO-700, or water for 48 hours. The DNA from each sample was purified by phenol extraction, and the fragmentation was resolved on an agarose gel.

[7] = tested on: breast cancer cell lines; test: Cancer cell death assay (LDH release), breast lines; format: cell-based, human; conditions: compound alone, 24 hours
Method: as §1, §2, §3, §4
In FIG. 8, a dose-response curve is shown of the effect of TOP-008 on the killing of breast, prostate and colon cell lines.

[8] = tested on: human breast cancer cells; test: Subrenal capsule (SRC) tumor implant assay, breast cancer; format: in vivo, human tumor in BDF/1 mice
Method: FIG. 18 is a graph showing the relationship between the change in size of tumor and the dosage of NCO-700 in a sub-renal capsule assay of human breast cancer in BDF/1 mice.
as §5
The effect of NCO-700 on a breast cancer line was tested in the SRC assay. Three groups of animals (n=18 total) were tested with three concentrations of NCO-700 including, 10 mg/kg, 25 mg/kg and 50 mg/kg. […] These studies confirm the high potential of NCO-700 and related compounds as new anti-neoplastic agents.

Structure (SMILES): CCOC(=O)[C@@H]1O[C@H]1C(=O)N[C@@H](CC(C)C)C(=O)N1CCN(Cc2ccc(OC)c(OC)c2OC)CC1 [NCO-700, Bis[ethyl (2R,3R)-3-[(S)-3-methyl-1-[4-(2,3,4-trimethoxyphenylmethyl)piperazin-1-ylcarbonyl]butylcarbamoyl]oxirane-2-carboxylate] Sulfate]
- anti-neoplastic activity (LDH release) [1]: all cells lines showed sensitivity to NCO-700
- LD50 [2]: 317 mg/kg
- effect on tumor size ([3]; 50 mg/kg): slight effect
- effect on tumor size ([3]; 100 mg/kg): significant anti-neoplastic effect
- anti-neoplastic activity (% LDH released) [4]: fairly good anti-neoplastic activity
- survival of tumor cells decreased to (fraction) [5]: approximately 1/3
- DNA fragmentation [6]: significant DNA fragmentation
- anti-neoplastic activity (LDH release) [7]: the cells that were responding to NCO-700 were estrogen receptor negative
- effect on tumor size ([8]; 10 mg/kg): no effect
- effect on tumor size ([8]; 25 mg/kg): significant anti-neoplastic effect
- effect on tumor size ([8]; 50 mg/kg): significant anti-neoplastic effect
